Assay results as given in US8586307B2, “Methods for diagnosing epigenetic, transgenerational effects of environmental toxicants on mammalian germ-lines and treating associated diseases” (priority 2005, dated 2013).

How the values were obtained:
[1] = system: F1 generation testis; details: cited from earlier work
[2] = system: DNA isolated from P6 testis or epididymal sperm; experiment: Methylation sensitive restriction enzyme PCR (MSRE-PCR) DNA methylation analysis; format: in vivo, rat
Procedure: DNA Methylation Assays: The methylation status of DNA, isolated from control and endocrine disruptor treated P6 testis, or epididymal sperm, used a combination of methylation sensitive restriction enzymes, and a PCR approach, previously described. Briefly, isolated genomic DNA was incubated and digested with RsaI, with either methylation sensitive (HpaII), or insensitive (MspI) restriction enzymes, followed by PCR, with 10 primer sets designed to amplify methylation sites. PCR products were electrophoretically separated, and visualized by Sybr green staining (Molecular Probes, Eugene, Oreg.), and effects of endocrine disruptors, were determined by the presence or absence of specific bands. The PCR products of interest were isolated, cloned and sequenced to determine chromosomal location by BLAST Genbank analysis. P6 testis analysis was repeated using 4 animals from different litters.
DNA methylation assay: The methylation state of the DNA isolated from CDF control and vinclozolin generation epididymal sperm was determined using a combination of methylation sensitive restriction enzymes and PCR procedures (MSRE-PCR) described above in Example I. Briefly, genomic DNA was isolated from sperm samples using the DNeasy Tissue Kit (Quiagen, Valencia, Calif.). Two micrograms each of control and vinclozolin generation sperm DNA were separately digested with RsaI and either methylation-sensitive enzyme HpaII or insensitive MspI enzymes, followed by PCR with specific primer sets (Table 1). PCR products were electrophoretically separated on polyacrylamide gels and visualized by ethidium bromide staining. The PCR products (i.e. bands) that were reproducibly absent or present between control and vinclozolin generation sperm DNA were excised from stained gels, re-amplified with the same PCR primer set, and then cloned and sequenced. The DNA sequence and chromosomal location were determined using the NCBI Rat genomic databank BLAST system.
Genomic DNA and Methylation Sensitive Restriction Enzyme PCR: Genomic DNA was isolated from the different control and vinclozolin F1-F3 generation epididymal sperm samples. A total of 1 μg of genomic DNA was digested using methylation-sensitive HpaII or AciI enzymes (37° C., 6-12 hr). The digested DNA was precipitated and dissolved in 30 μl of dH2O. Then, 3 μl aliquots were analyzed by PCR in 30 μl reactions with specific primers (Table 1), subjected to 25 cycles, and the PCR products electrophoretically separated on 1.5% agarose. The differences between the control and vinclozolin F1-F3 generation sperm samples were determined for selected genes found to have high optimal digestion capacity.

[3] = system: spermatogenic cells; experiment: Spermatogenic cell apoptosis in testis sections (TUNEL) after transient embryonic exposure; details: rat, in vivo
Procedure: In Vivo Procedures: Gestating outbred Sprague-Dawley and inbred Fisher mother rats from timed, pregnant colonies housed at the Washington State University Vivarium, were given intraperitoneal injections of vinclozolin (100 mg/kg/day) and methoxychlor (200 mg/kg/day) from embryonic day 8-15 (E8-E15, sperm positive vaginal smear date=E0) of gestation (F0 generation) as previously described. Gestating mothers administered vehicle, sesame oil or DMSO, served as controls. At least 6 lines (individual F0 injected females) were generated for controls and treated groups for these analyses. Male rats from control and treated groups were collected at P60-P180 for analyses. F1 treated males were bred to F1 treated females to generate the F2 treated generation and F2 treated males were bred to F2 treated females to generate the F3 generation and the F3 were bred in the same manner to generate the F4 generation. Rats for the control groups were bred in the same manner for all the generations. No inbreeding or sibling crosses were generated. The outcross group (VOC) were generated by breeding the F2 treated males with wild-type females (total of 6 litters) and reverse outcross group (RVOC) was generated by breeding F2 treated females with wild-type males (total of 3 litters). Control (n=4) and treated (n=4) male offspring from the F1 generation from Fisher strain rats were collected at P6 for DNA methylation analysis, see below. All procedures have been approved by the Washington State University Animal Care Committee. The number of animals used for replicates in the experiments (i.e. n value) are as follows for vinclozolin treatment: F1 (control 11, treated 12); F2 (control 19, treated 30); F3 (control 19, treated 26); F4 (control 10, treated 17); VOC (18); and RVOC (6). […]
Detection of Cell Apoptosis: To detect apoptotic cells in testis sections, the Fluorescien In Situ Cell Death Detection Kit (Roche Applied Science, Indianapolis, Ind.) was utilized. […] Fluorescent apoptotic cells were imaged on a confocal microscope and quantitation of number of apoptotic cells per testis cross section. […]

[4] = system: vinclozolin generation animals; details: rat, in vivo
From the text: A number of the genes associated with the methylation changes identified have a relationship with various disease states, Table 3. […] Therefore, alterations in the epigenetic (DNA methylation) and/or expression of these genes is associated with a number of disease states. In addition to these correlations to previous literature, the vinclozolin generation animals develop a variety of disease states. Vinclozolin (F1-F4) generation animals between 6-12 months of age develop a variety of disease states or abnormalities, Table 4 [153]. Therefore, the vinclozolin generational animals used develop a variety of diseases, and have the altered epigenetic programming of the male germ-line. Combined observations indicate that the epigenetic alterations in the germ-line DNA and associated genes identified in this Example, are associated with a number of disease states, Tables 3 and 4.

[5] = system: pregnant females; experiment: Ovary and pregnancy outcomes in vinclozolin generation females; format: in vivo, rat; details: preliminary data
From the text: The abnormal phenotype has similarities to pre-eclampsia that include death, severe anemia and blood cell defects, occurring in approximately 15% of all pregnancies in vinclozolin-generation females. Other disease states, as such as prostate abnormalities, tumor development, abnormal immune system activation and premature aging, may be induced by the epigenetic transgenerational actions of the endocrine disruptors.

[6] = General observations (body weight, litter size, serum testosterone, other tissues); format: in vivo, rat
Procedure: In Vivo Procedures: Gestating outbred Sprague-Dawley and inbred Fisher mother rats from timed, pregnant colonies housed at the Washington State University Vivarium, were given intraperitoneal injections of vinclozolin (100 mg/kg/day) and methoxychlor (200 mg/kg/day) from embryonic day 8-15 (E8-E15, sperm positive vaginal smear date=E0) of gestation (F0 generation) as previously described. Gestating mothers administered vehicle, sesame oil or DMSO, served as controls. At least 6 lines (individual F0 injected females) were generated for controls and treated groups for these analyses. Male rats from control and treated groups were collected at P60-P180 for analyses. F1 treated males were bred to F1 treated females to generate the F2 treated generation and F2 treated males were bred to F2 treated females to generate the F3 generation and the F3 were bred in the same manner to generate the F4 generation. Rats for the control groups were bred in the same manner for all the generations. No inbreeding or sibling crosses were generated. The outcross group (VOC) were generated by breeding the F2 treated males with wild-type females (total of 6 litters) and reverse outcross group (RVOC) was generated by breeding F2 treated females with wild-type males (total of 3 litters). Control (n=4) and treated (n=4) male offspring from the F1 generation from Fisher strain rats were collected at P6 for DNA methylation analysis, see below. All procedures have been approved by the Washington State University Animal Care Committee. The number of animals used for replicates in the experiments (i.e. n value) are as follows for vinclozolin treatment: F1 (control 11, treated 12); F2 (control 19, treated 30); F3 (control 19, treated 26); F4 (control 10, treated 17); VOC (18); and RVOC (6). For methoxychlor treatment animal number was for F1 (control 6, treated 9) and F2 (control 16, treated 22).

C=CC1(C)OC(=O)N(c2cc(Cl)cc(Cl)c2)C1=O (centres unmarked) [vinclozolin]
adult F1 generation testis phenotype ([1]; gestating mother exposed E8-E15, 100 or 200 mg/kg i.p. daily): reduced spermatogenic capacity, increased spermatogenic cell apoptosis and decreased sperm number and motility
effect on the F1 generation testis ([1]; rat, in vivo): no effect
gene specific MSRE-PCR products for candidates #1, #14, #17/18, #27/28 and #33 ([2]; F1, F2 and F3 generation sperm DNA): PCR products were observed in all the vinclozolin generation sperm DNA samples, but not in the controls
individual candidate DNA sequences with potential altered methylation sites ([2]; F3 generation sperm DNA): 25
candidates with potential altered DNA methylation between control and vinclozolin sperm samples ([2]; F3 generation sperm, Fisher rats): 34
different PCR products with apparent altered DNA methylation patterns ([2]; P6 testis, F1 males, Fisher rats, n=4): Approximately 25
animals with altered clone 17 (cytokine-inducible SH2 STAT-like protein gene) methylation in epididymal sperm ([2]; out of 5 F3 animals): 2 animals
animals with altered clone 17 (cytokine-inducible SH2 STAT-like protein gene) methylation in epididymal sperm ([2]; out of 8 F2 animals): 4 animals
males analyzed that had the increased spermatogenic cell apoptosis ([3]; male): Greater than 90%
effect on the spermatogenic cells in reverse outcross (RVOC) [3]: no effect
spermatogenic cell apoptosis in outcross (VOC) males [3]: increase
Prevalence, Immune Abnormalities [4]: 27%
Prevalence, Kidney Disease [4]: 40%
Prevalence, Prostate Disease [4]: 50%
Prevalence, Testis Defect [4]: 30%
Prevalence, Tumor Development (e.g. breast) [4]: 17%
frequency at which generation animals develop disease states [4]: ~85%
pregnancies with abnormal phenotype similar to pre-eclampsia (death, severe anemia, blood cell defects) ([5]; F1, F2 and F3 generation pregnant females): approximately 15%
effect on the female ovary [5]: no major effect
serum testosterone levels ([6]; all the animals): normal
effect on total body weight ([6]; rat, in vivo): no effect
gross abnormality in any other tissues examined ([6]; rat, in vivo): No gross abnormality
litter size, newborn pup weights or testis weight per body weight ([6]; rat, in vivo): no change
